# Key:
# Assay type in all cases: cell-based
# N-SMase = experiment: Western blot of N-SMase protein after antisense knockdown in primary human neurons; settings: 48 h with oligonucleotide
# Protocol: Because these ASOs have become a very critical part of our study, the efficacy of N-SMase and A-SMase ASOs in inhibiting the protein expression of N-SMase and A-SMase was checked by western blot. […] Next, the effect of antisense knockdown of neuronal N-SMase and/or A-SMase on activated glia-induced neuronal apoptosis by TUNEL was investigated. […] As evidenced by a decrease In MTT metabolism, activated astroglia reduced neuronal viability (FIG. 2E).
# Primary human neurons were incubated with antisense (ASO) and scrambled oligonucleotides (ScO) against N-SMase (A) and A-SMase (FIG. 2B). After 48 h, neurons were analyzed for protein expression of N-SMase and A-SMase. In FIG. 2C, primary human astrocytes seeded in inserts were stimulated by the combination of Aβ and IL-1β as described above. […] After 6 h of treatment with activated astrocytes, apoptotic events in neurons were detected by TUNEL. In FIG. 2D, TUNEL-positive cells were counted manually in four different images of each of three coverslips by three individuals blinded to the experiment. In FIG. 2E, after 18 h of stimulation, cell viability was examined by the metabolism of MTT and the release of LDH. […] Cell viability was checked by MTT (FIG. 2F) and LDH (FIG. 2G). Values obtained from the control group served as 100%, and data obtained in other groups were calculated as percent of control accordingly. […]
# primary human neurons [1] = experiment: TUNEL apoptosis of neurons challenged by (fibrillar Aβ+IL-1β)-activated astrocytes, astrocyte-neuron trans-well; settings: neurons pretreated 40 h with 1 μM oligonucleotide; 6 h with (fibrillar Aβ+IL-1β)-activated astrocytes
# Protocol: Primary human astrocytes were grown to confluency on inserts. After 24 h of stimulation by the combination of Aβ (1 μM) and IL-Iβ (10 ng/ml), inserts were washed thrice with HBSS and then placed onto the wells containing primary human neurons. Therefore, in this trans-well model, although neurons and astrocytes face each other, they are separable and the effect of soluble factors released from activated astrocytes on neurons can be studied allowing analysis of neuronal and glial populations separately.
# Fragmented DNA was detected in situ by the terminal deoxynucleotidyltransferase-mediated binding of 3′-OH ends of DNA fragments generated in response to fibrillar Aβ1-42, using a commercially available kit (TdT FragEL™) from Calbiochem. […]
# Primary human neurons were incubated with antisense (ASO) and scrambled oligonucleotides (ScO) against N-SMase (A) and A-SMase (FIG. 2B). After 48 h, neurons were analyzed for protein expression of N-SMase and A-SMase. […] After 6 h of treatment with activated astrocytes, apoptotic events in neurons were detected by TUNEL. In FIG. 2D, TUNEL-positive cells were counted manually in four different images of each of three coverslips by three individuals blinded to the experiment. […] Values obtained from the control group served as 100%, and data obtained in other groups were calculated as percent of control accordingly. […]
# primary human astroglia = experiment: NO synthesis (nitrite, Griess reagent) in primary human astroglia; settings: astroglia pretreated 40 h with oligonucleotide; nitrite after 24 h of stimulation
# How it was run: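 Primary human astroglia pretreated 40 h with antisense or scrambled oligonucleotides against N-SMase and A-SMase, then stimulated with fibrillar Aβ plus IL-1β under serum-free conditions. Nitrite was measured in supernatants by Griess reagent after 24 h of stimulation.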
# [2] = system: TNF-α, IL-1β and IL-6 mRNAs; experiment: TNF-α, IL-1β and IL-6 mRNA expression (RT-PCR) in activated primary human astroglia; settings: oligonucleotide 40 h, then 6 h of stimulation
# Protocol: Total RNA was isolated from human primary astrocytes using RNA-Easy Qiagen kit following manufactures protocol. To remove any contaminating genomic DNA, total RNA was digested with DNase. Semi-quantitative RT-PCR was carried out as described earlier using oligo (dT) 12-18 as primer and MMLV reverse transcriptase (Clontech) in a 20-μl reaction mixture. The resulting cDNA was appropriately diluted, and diluted cDNA was amplified using Titanium Taq polymerase and the following primers for human proinflammatory genes: […]
# Cells pretreated with ASO and ScO against N-SMase and A-SMase for 40 h were stimulated with (Aβ+IL-1β) under serum-free condition. After 24 h of stimulation, the concentration of nitrite was measured in supernatants (FIG. 4A) by Griess reagent. […] Cells were treated with ASO/ScO for 40 h followed by stimulation with the combination of fibrillar Aβ and IL-Iβ as above. After 6 h, the expression of iNOS mRNA was analyzed by both semi-quantitative RT-PCR (C) and quantitative real-time PCR (FIG. 4D). The expression of TNF-a, IL-6 and IL-Iβ mRNAs were analyzed by semi-quantitative RT-PCR (FIG. 4E). Results are mean±SD of three different experiments. ^ap<0.001 vs control; ^bp<0.001 vs (Aβ+IL-Iβ).
# primary human neurons [3] = experiment: TUNEL apoptosis of neurons challenged by oligomeric Aβ-activated astrocytes, trans-well; settings: neurons pretreated 40 h with 1 μM oligonucleotide; 6 h
# Protocol: Fragmented DNA was detected in situ by the terminal deoxynucleotidyltransferase-mediated binding of 3′-OH ends of DNA fragments generated in response to fibrillar Aβ1-42, using a commercially available kit (TdT FragEL™) from Calbiochem. Briefly, cover slips were treated with 20 μg/ml proteinase K for 15 min at room temperature and washed prior to terminal deoxynucleotidyltransferase staining.
# In FIG. 5A, primary astrocytes were stimulated with fibrillar Aβ1-42, oligomeric Aβ1-42 and reverse peptide Aβ42-1 for 24 h followed by double-labeling of GFAP and iNOS. In FIG. 5B, primary human astrocytes seeded in inserts were stimulated with a combination of I μM of oligomeric Aβ1-42 and 10 ng/ml of IL-Iβ in serum free media. […] After 6 h, neuronal apoptosis was monitored by TUNEL. In FIG. 5C, TUNEL-positive cells were counted manually in four different images of each of three coverslips by three individuals blinded to the experiment. Values obtained from the control group (1) served as 100%, and data obtained from other three groups i.e. the oligomeric Aβ-activated astrocytes (OAA) group (2), the ASO-OAA group (3), and the ScO-OAA group (4) was calculated as percent of control accordingly. Results are mean+S.D. of three different experiments. ^ap<0.001 vs control; ^bp<0.001 vs OAA.
# NF-κB = experiment: EMSA of NF-κB DNA-binding activity in primary human astroglia; settings: 1 μM oligonucleotide 40 h; 1 h of stimulation
substance,measurement,setting,value
"5′- CAGCGAGCCCGTCCACCAGCC -3′ (DNA, all phosphorothioate, methylation of C not given here) [ASO against N-SMase, ID; NO.: 12]",level of N-SMase protein,N-SMase,effectively inhibited
same,protection of neurons from activated astrocyte-induced apoptosis (TUNEL),primary human neurons [1],markedly protected
same,(Aβ+IL-1β)-induced production of NO,primary human astroglia,markedly abrogated
same,"(Aβ+IL-1β)-induced expression of TNF-α, IL-1β and IL-6 mRNAs",[2],abrogated
same,oligomeric Aβ-activated astrocyte-induced apoptosis of human neurons (TUNEL),primary human neurons [3],blocked
same,(Aβ+IL-1β)-induced DNA-binding activity of NF-κB,NF-κB,suppressed

# — patent US9006205B2, “Antisense oligonucleotides against neutral sphingomyelinase and neutral sphingomyelinase inhibitor GW4869 for degenerative neurological disorders” (Rush University Medical Center, priority 2011, dated 2015)
